Data reported in PubChem BioAssay (NCI).
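Dose response: 5 concentrations. Exposure: 48 h. Format: 96-well plates. Endpoint: linear interpolation; highest concentration if not reached. TGI denotes the concentration required for complete inhibition of growth.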

Columns and labels:
Assay in all cases: growth of human tumour cells (NCI), 48 h
[1] = tested on: 786-0 renal
[2] = tested on: A498 renal
[3] = tested on: A549 NSCLC
[4] = tested on: ACHN renal
[5] = tested on: BT-549 breast
[6] = tested on: CAKI-1 renal
[7] = tested on: CCRF-CEM leukemia
[8] = tested on: COLO 205 colon
[9] = tested on: DU-145 prostate
[10] = tested on: EKVX NSCLC
[11] = tested on: HCC-2998 colon
[12] = tested on: HCT-116 colon
[13] = tested on: HCT-15 colon
[14] = tested on: HL-60(TB) leukemia
[15] = tested on: HOP-62 NSCLC
[16] = tested on: HOP-92 NSCLC
[17] = tested on: HS 578T breast
[18] = tested on: HT29 colon
[19] = tested on: IGROV1 ovarian
[20] = tested on: K-562 leukemia
[21] = tested on: KM12 colon
[22] = tested on: LOX IMVI melanoma
[23] = tested on: M14 melanoma
[24] = tested on: MALME-3M melanoma
[25] = tested on: MCF7 breast
[26] = tested on: MDA-MB-231 breast
[27] = tested on: MDA-MB-435
[28] = tested on: MDA-N
[29] = tested on: MOLT-4 leukemia
[30] = tested on: NCI-H226 lung
[31] = tested on: NCI-H23 lung
[32] = tested on: NCI-H460 lung
[33] = tested on: NCI-H522 lung
[34] = tested on: NCI/ADR-RES ovarian
[35] = tested on: OVCAR-3 ovarian
[36] = tested on: OVCAR-4 ovarian
[37] = tested on: OVCAR-5 ovarian
[38] = tested on: OVCAR-8 ovarian
[39] = tested on: PC-3 prostate
[40] = tested on: RPMI-8226 leukemia
[41] = tested on: SF-268 CNS
[42] = tested on: SF-295 CNS
[43] = tested on: SF-539 CNS
[44] = tested on: SK-MEL-2 melanoma
[45] = tested on: SK-MEL-28 melanoma
[46] = tested on: SK-MEL-5 melanoma
[47] = tested on: SK-OV-3 ovarian
[48] = tested on: SN12C renal
[49] = tested on: SNB-19 CNS
[50] = tested on: SNB-75 CNS
[51] = tested on: SR leukemia
[52] = tested on: SW-620 colon
[53] = tested on: T-47D breast
[54] = tested on: TK-10 renal
[55] = tested on: U251 CNS
[56] = tested on: UACC-257 melanoma
[57] = tested on: UACC-62 melanoma
[58] = tested on: UO-31 renal

Measured: TGI

O=C(O)COc1cc(-c2ccccc2)nc2ccc(F)cc12
> 100 µM: [1] | [2] | [3] | [4] | [5] | [6] | [7] | [8] | [9] | [10] | [11] | [12] | [13] | [14] | [15] | [16] | [17] | [18] | [19] | [20] | [21] | [22] | [23] | [24] | [25] | [26] | [27] | [28] | [29] | [30] | [31] | [32] | [33] | [34] | [35] | [36] | [37] | [38] | [39] | [40] | [41] | [42] | [43] | [44] | [45] | [46] | [47] | [48] | [49] | [50] | [51] | [52] | [53] | [54] | [55] | [56] | [57] | [58]

Cc1oc2c(c1C)S(=O)(=O)C(C#N)=CN2
> 100 µM: [1] | [2] | [3] | [4] | [5] | [6] | [8] | [9] | [10] | [11] | [12] | [13] | [15] | [16] | [17] | [18] | [19] | [20] | [21] | [22] | [23] | [24] | [25] | [26] | [27] | [28] | [29] | [30] | [31] | [32] | [33] | [34] | [35] | [36] | [37] | [38] | [39] | [40] | [41] | [42] | [43] | [44] | [45] | [46] | [47] | [48] | [49] | [50] | [51] | [52] | [53] | [54] | [55] | [56] | [57] | [58]
